Structures are written as SMILES. In brackets after ≈: the same amount, converted by molar mass. Activity calls are given as the source filed them. The rule behind the calls is not given here.

One data set concerns Acinetobacter baumannii. As to the kind of experiment: Antibacterial activity against carbapenem-resistant Acinetobacter baumannii (12-666) assessed as inhibition of microbial growth up to 50 ug/ml incubated for 24 hrs by microdilution assay. The format is functional. For orientation: In broth dilution the organism is exposed to a series of concentrations in liquid medium.
Data set [1] has as its system Klebsiella pneumoniae. As to the kind of experiment: Antibacterial activity against extended-spectrum beta-lactamase-positive Klebsiella pneumoniae (14-2081) assessed as inhibition of microbial growth up to 50 ug/ml incubated for 24 hrs by microdilution assay. It is filed as functional.
Data set [2] relates to Mycobacterium tuberculosis. Description: Antimycobacterial activity against Mycobacterium tuberculosis H37Rv ATCC 27294 assessed as inhibition of mycobacterial growth up to 50 ug/ml incubated for 2 weeks by MABA method. The format is functional. In general terms: Alamar Blue is a resazurin reagent that responds to reducing activity.
In data set [3] the test system is Stenotrophomonas maltophilia. As to the kind of experiment: Antibacterial activity against trimethoprim-sulfamethoxazole-resistant Stenotrophomonas maltophilia assessed as inhibition of microbial growth up to 50 ug/ml incubated for 24 hrs by microdilution assay. The format is functional.
In data set [4] the test system is Escherichia coli. As to the kind of experiment: Antibacterial activity against oxacillin-resistant Escherichia coli OXA-48 assessed as inhibition of microbial growth up to 50 ug/ml incubated for 24 hrs by microdilution assay. The format is functional.
The subject of data set [5] is Klebsiella pneumoniae. As to the kind of experiment: Antibacterial activity against NDM-1 positive Klebsiella pneumoniae (14-3335) assessed as inhibition of microbial growth up to 50 ug/ml incubated for 24 hrs by microdilution assay. The format is functional.
For a further data set, the system named is Providencia rettgeri. As to the kind of experiment: Antibacterial activity against NDM-1 positive Providencia rettgeri assessed as inhibition of microbial growth up to 50 ug/ml incubated for 24 hrs by microdilution assay. The format is functional.
Data set [6] has as its system Mycobacterium tuberculosis. Description: Antimycobacterial activity against Mycobacterium tuberculosis H37Rv ATCC 27294 assessed as inhibition of mycobacterial growth incubated for 2 weeks by MABA method. The format is functional. To be noted: for MIC: Mycobacterium tuberculosis, H37Rv ATCC 27294, 336 h.
In data set [7] the test system is Escherichia coli. Description: Antibacterial activity against extended-spectrum beta-lactamase-positive Escherichia coli (14-2081) assessed as inhibition of microbial growth up to 50 ug/ml incubated for 24 hrs by microdilution assay. It is filed as functional.
For another data set, the system named is Pseudomonas aeruginosa. As to the kind of experiment: Antibacterial activity against carbapenem-resistant Pseudomonas aeruginosa (13-1391) assessed as inhibition of microbial growth up to 50 ug/ml incubated for 48 hrs by microdilution assay. It is filed as functional.
Data set [8] has as its system Staphylococcus haemolyticus. Description: Antibacterial activity against linezolid-resistant Staphylococcus haemolyticus 2975 assessed as inhibition of microbial growth incubated for 24 hrs by microdilution assay. Particulars: Staphylococcus haemolyticus, 2975, 24 h. It is filed as functional.
Data set [9] in a line: Selectivity index, ratio of IC50 for cytotoxicity against African green monkey Vero cells to MIC for Mycobacterium tuberculosis H37Rv ATCC 27294. It is filed as toxicity, cell-based. Particulars: read-out: Selectivity Index.
Data set [10] in a line: Selectivity index, ratio of IC50 for cytotoxicity against African green monkey Vero cells to MIC for antibacterial activity against methicillin-resistant Staphylococcus aureus (14-2095).
Data set [11] deals with Staphylococcus epidermidis. As to the kind of experiment: Antibacterial activity against linezolid-resistant Staphylococcus epidermidis (14-583) assessed as inhibition of microbial growth incubated for 24 hrs by microdilution assay. The format is functional.
For a further data set, the system named is Vero. As to the kind of experiment: Cytotoxicity against African green monkey Vero cells assessed as reduction in cell viability incubated for 24 hrs by trypan blue staining based assay. To be noted: Chlorocebus sabaeus.
The subject of a further data set is Staphylococcus aureus. As to the kind of experiment: Antibacterial activity against methicillin-resistant Staphylococcus aureus (14-2095) assessed as inhibition of microbial growth incubated for 24 hrs by microdilution assay. The format is functional.
A further data set deals with Enterococcus faecium. Description: Antibacterial activity against vancomycin-resistant Enterococcus faecium (10-984) assessed as inhibition of microbial growth incubated for 24 hrs by microdilution assay. The format is functional.

`COc1cc(C[C@@H](C)[C@@H](C)Cc2ccc(OC(=O)c3ccccc3[N+](=O)[O-])c(OC)c2)ccc1OC(=O)c1ccccc1[N+](=O)[O-]`: the result (with Acinetobacter baumannii; with Klebsiella pneumoniae [1]; in [3]; in the data set on Escherichia coli [4]; in the data set with Klebsiella pneumoniae [5]; in the data set with Providencia rettgeri) was inactive. Besides, the result in the data set on Escherichia coli [7] and in the data set with Pseudomonas aeruginosa was inactive. Further, the “growth inhibition (GI)” value in [2] is “inactive”. In data set [6], the “-logMIC” value is on record as 4.03.

Consider `COc1cc(C[C@@H](C)[C@@H](C)Cc2ccc(OC(=O)c3ccccn3)c(OC)c2)ccc1OC(=O)c1ccccn1`, for which the result (with Acinetobacter baumannii; in the data set with Klebsiella pneumoniae [1]; in [3]; with Escherichia coli [4]; with Klebsiella pneumoniae [5]; with Providencia rettgeri) was inactive. Besides, the result with Escherichia coli [7] and in the data set on Pseudomonas aeruginosa was inactive. In data set [2], the “growth inhibition (GI)” value is “inactive”. Also, in data set [6], the “-logMIC” value was 3.92.

For the compound `COc1cc(C[C@@H](C)[C@@H](C)Cc2ccc(OC(=O)c3ccc(Br)cc3)c(OC)c2)ccc1OC(=O)c1ccc(Br)cc1`, the result (in the data set on Acinetobacter baumannii; with Klebsiella pneumoniae [1]; in [3]; in the data set with Escherichia coli [4]; in the data set on Klebsiella pneumoniae [5]; in the data set on Providencia rettgeri) was inactive. Moreover, the outcome with Escherichia coli [7] and with Pseudomonas aeruginosa was inactive. Further, the “growth inhibition (GI)” value in data set [2] is “inactive”. Besides, the “-logMIC” value in data set [6] is reported as 4.09.

Regarding `CCCC(=O)Oc1ccc(C[C@@H](C)[C@@H](C)Cc2ccc(OC(=O)CCC)c(OC)c2)cc1OC`, the outcome (in the data set on Acinetobacter baumannii; with Klebsiella pneumoniae [1]; in [3]; with Escherichia coli [4]; with Klebsiella pneumoniae [5]; in the data set with Providencia rettgeri) was inactive. For the same compound, the outcome in the data set with Escherichia coli [7] and with Pseudomonas aeruginosa was inactive. Also, in data set [2], the “growth inhibition (GI)” value was “inactive”. Besides, the “-logMIC” value in data set [6] was determined as 4.04.

Turning to `CCCCCCCCCCCCCCCC(=O)Oc1ccc(C[C@@H](C)[C@@H](C)Cc2ccc(OC(=O)CCCCCCCCCCCCCCC)c(OC)c2)cc1OC`, the outcome (in the data set on Acinetobacter baumannii; in the data set on Klebsiella pneumoniae [1]; in [3]; with Escherichia coli [4]; in the data set with Klebsiella pneumoniae [5]; in the data set on Providencia rettgeri) was inactive. The outcome in the data set on Escherichia coli [7] and with Pseudomonas aeruginosa was inactive. For the same compound, in data set [2], the “growth inhibition (GI)” value is “inactive”. Besides, in [6], the “-logMIC” value worked out at 4.02.

Turning to `COc1cc(C[C@@H](C)[C@@H](C)Cc2ccc(OCCN3CCOCC3)c(OC)c2)ccc1OCCN1CCOCC1`, the MIC (in general, the least concentration at which growth counts as inhibited) in data set [8] was more than 50 µg/mL; in [11] it was more than 50 µg/mL; in data set [6], 25 µg/mL (≈ 44.9 µM); in the data set on Staphylococcus aureus it was 50 µg/mL; with Enterococcus faecium it was more than 50 µg/mL. In addition, the outcome (in the data set on Acinetobacter baumannii; with Klebsiella pneumoniae [1]; in [3]; with Escherichia coli [4]; with Klebsiella pneumoniae [5]; in the data set with Providencia rettgeri) was inactive. Besides, the outcome with Escherichia coli [7] and in the data set with Pseudomonas aeruginosa was inactive. Further, in [9], the selectivity ratio was determined as 2.87. For the same compound, the “Selectivity Index” value in [10] is recorded as 1.43. For the same compound, in the data set on Vero, the IC50 (commonly the concentration that inhibits the measured activity by half) is 71.6 µg/mL (≈ 129 µM).

As for `CCCCCCCCCCCCCCCCCC(=O)Oc1ccc(C[C@@H](C)[C@@H](C)Cc2ccc(OC(=O)CCCCCCCCCCCCCCCCC)c(OC)c2)cc1OC`, the result (in the data set on Acinetobacter baumannii; in the data set on Klebsiella pneumoniae [1]; in data set [3]; with Escherichia coli [4]; with Klebsiella pneumoniae [5]; in the data set with Providencia rettgeri) was inactive. Further, the outcome in the data set on Escherichia coli [7] and with Pseudomonas aeruginosa was inactive. Besides, in [2], the “growth inhibition (GI)” value was “inactive”. In addition, the “-logMIC” value in [6] is given as 3.85.

For `COc1cc(C[C@@H](C)[C@@H](C)Cc2ccc(OC(=O)c3ccccc3)c(OC)c2)ccc1OC(=O)c1ccccc1`, the result (with Acinetobacter baumannii; in the data set with Klebsiella pneumoniae [1]; in data set [3]; in the data set on Escherichia coli [4]; in the data set with Klebsiella pneumoniae [5]; with Providencia rettgeri) was inactive. Further, the outcome in the data set on Escherichia coli [7] and in the data set on Pseudomonas aeruginosa was inactive. In data set [2], the “growth inhibition (GI)” value is “inactive”. In addition, in data set [6], the “-logMIC” value is reported as 4.14.

As to `CCCCCCCCCCCCCCCCCC(=O)Oc1ccc(C[C@H](C)[C@H](C)Cc2ccc(O)c(OC)c2)cc1OC` (racemic), the outcome (with Acinetobacter baumannii; in the data set with Klebsiella pneumoniae [1]; in [3]; in the data set with Escherichia coli [4]; in the data set on Klebsiella pneumoniae [5]; in the data set on Providencia rettgeri) was inactive. Further, the result in the data set on Escherichia coli [7] and with Pseudomonas aeruginosa was inactive. The “growth inhibition (GI)” value in [2] was “inactive”. The “-logMIC” value in data set [6] turned out to be 3.84.

With `CCCCCCCC/C=C\CCCCCCCC(=O)Oc1ccc(C[C@H](C)[C@H](C)Cc2ccc(O)c(OC)c2)cc1OC` (racemic), the outcome (in the data set with Acinetobacter baumannii; with Klebsiella pneumoniae [1]; in data set [3]; with Escherichia coli [4]; in the data set with Klebsiella pneumoniae [5]; with Providencia rettgeri) was inactive. Further, the outcome in the data set on Escherichia coli [7] and in the data set with Pseudomonas aeruginosa was inactive. The “growth inhibition (GI)” value in [2] was “inactive”. Also, in data set [6], the “-logMIC” value is 4.51.

`CCCC(=O)Oc1ccc(C[C@H](C)[C@H](C)Cc2ccc(O)c(OC)c2)cc1OC` (racemic): the outcome (in the data set with Acinetobacter baumannii; in the data set on Klebsiella pneumoniae [1]; in [3]; in the data set with Escherichia coli [4]; in the data set with Klebsiella pneumoniae [5]; in the data set on Providencia rettgeri) was inactive. Besides, the result in the data set on Escherichia coli [7] and with Pseudomonas aeruginosa was inactive. For the same compound, the “growth inhibition (GI)” value in data set [2] is “inactive”. For the same compound, the “-logMIC” value in data set [6] is on record as 3.94.

As to `CCCCCCCCCCCCCCCC(=O)Oc1ccc(C[C@H](C)[C@H](C)Cc2ccc(O)c(OC)c2)cc1OC` (racemic), the MIC is more than 50 µg/mL in data set [8], more than 50 µg/mL in [11], 50 µg/mL in the data set with Staphylococcus aureus and more than 50 µg/mL with Enterococcus faecium. Further, the outcome (with Acinetobacter baumannii; in the data set on Klebsiella pneumoniae [1]; in data set [3]; in the data set on Escherichia coli [4]; in the data set on Klebsiella pneumoniae [5]; with Providencia rettgeri) was inactive. Also, the outcome in the data set with Escherichia coli [7] and with Pseudomonas aeruginosa was inactive. Also, the “growth inhibition (GI)” value in data set [2] was “inactive”. Also, the “-logMIC” value in data set [6] is 4.54.

For `C[C@H]1COc2c(N3CCN(C)CC3)c(F)cc3c(=O)c(C(=O)O)cn1c23.C[C@H]1COc2c(N3CCN(C)CC3)c(F)cc3c(=O)c(C(=O)O)cn1c23.O` [LEVOFLOXACIN], the MIC was 12.5 µg/mL in [8]; 12.5 µg/mL in data set [11]; 0.078 µg/mL in data set [6]; 3.12 µg/mL in the data set with Staphylococcus aureus; more than 50 µg/mL in the data set with Enterococcus faecium. In addition, the “Selectivity Index” value in data set [10] is 93.81. Besides, the IC50 with Vero was determined as 293 µg/mL.

Consider `COc1ccc(C[C@@H](C)[C@@H](C)Cc2ccc(OC)c(OC)c2)cc1OC` [TERAMEPROCOL], for which the result (in the data set with Acinetobacter baumannii; with Klebsiella pneumoniae [1]; in data set [3]; in the data set with Escherichia coli [4]; in the data set with Klebsiella pneumoniae [5]; in the data set with Providencia rettgeri) was inactive. The outcome in the data set on Escherichia coli [7] and in the data set on Pseudomonas aeruginosa was inactive. Also, the “growth inhibition (GI)” value in data set [2] was “inactive”. Also, the “-logMIC” value in data set [6] is 4.35.
